Structures are written as SMILES. Where two headings read alike, the source gives them in different places.

By EC90 is commonly meant the concentration needed for an effect of 90%.

One data set has as its system Huh-7 cells. As to the kind of experiment: Cellular rRNA levels / cytotoxicity in HCV replicon cells. The settings on record: 100 μM; 4 days; HCV replicon transfected Huh-7 cells. An excerpt:
In a typical setting, a compound might reduce both the host RNA polymerase activity and the replicon-encoded polymerase activity. Therefore, quantification of rRNA (or any other host RNA polymerase I product) or beta-actin mRNA (or any other host RNA polymerase II) and comparison with RNA levels of the no-drug control is a relative measurement of the effect of the test compound on host RNA polymerases.
With the availability of both the HCV ΔCt data and the rRNA ΔCt, a specificity parameter can be introduced. This parameter is obtained by subtracting both ΔCt values from each other.
IFN-α-2a and ribavirin were tested over a range of concentrations for their ability to reduce the HCV RNA levels in exponentially growing replicon cells after 4 days of exposure as described (Stuyver, L. et al. “A ribonucleoside analogue that blocks the replication of bovine viral diarrhea and hepatitis C viruses in culture” Antimicrob. Agents Chemother. 2003, 47, 244-254).
Gemcitabine was dissolved in DMSO and added to the culture media of a cellular model system of Huh7 cells harboring self-replicating HCV RNA, at final concentrations ranging from […]. In such experiments, one way to express the antiviral effectiveness of a compound is to subtract the threshold reverse-transcriptase polymerase chain reactions (RT-PCR) cycle of the test compound with the average threshold RT-PCR cycle of the negative control. This value is called DeltaCt (ΔCt or dCt). With the availability of both the HCV ΔCt data and the rRNA ΔCt, a specificity parameter can be introduced. This parameter is obtained by subtracting both ΔCt values from each other.
A general note: A replicon is a self-replicating genome or part of one, used to study replication in cells.

In a further data set the test system is HCV replicon. As to the kind of experiment: HCV replicon assay: HCV RNA by Q-RT-PCR, 4 days exposure. It counts as cell-based, hepatitis C virus (HCV). To be noted: for EC90: read-out: Corrected HCV RNA EC90; for log reduction at 10 µM: read-out: Corrected HCV RNA log10 reduction at 10 μM. As to the method: Antiviral screening assays can be done in the same media without G418 as follows: in order to keep cells in logarithmic growth phase, seed cells in a 96-well plate at low density, for example 1000 cells per well. Add the test compound immediate after seeding the cells and incubate for a period of 3 to 7 days at 37° C. in an incubator. Media is then removed, and the cells are prepared for total nucleic acid extraction (including replicon RNA and host RNA). Replicon RNA can then be amplified in a Q-RT-PCR protocol, and quantified accordingly. […] This value is called DeltaCt (ΔCt or DCt).
This value is called DeltaCt (ΔCt or dCt).

The mark [1] stands for this setting: 100 μM, 4 days, HCV replicon transfected Huh-7 cells.
The mark [2] stands for this setting: Hepatitis C virus, 96 h, read-out: Corrected HCV RNA log10 reduction at 100 μM.
Where [3] appears, read: Hepatitis C virus, 96 h, 100 μM, 4 days, HCV replicon transfected Huh-7 cells, read-out: log10 RNA reduction at 100 μM, HCV.
Setting [4] is: Hepatitis C virus, 96 h incubation.
[5] abbreviates: Hepatitis C virus, 96 h, 10 μM, corrected for rRNA.
[6] abbreviates: Hepatitis C virus, 96 h, 100 μM, corrected for rRNA, read-out: Corrected HCV RNA log10 reduction at 100 μM.

Turning to `O=c1cnn([C@@H]2O[C@H](CO)[C@@H](O)[C@H]2O)c(=S)[nH]1` [2-thio-6-azauridine], in the data set with Huh-7 cells, the “log10 RNA reduction at 100 μM, rRNA” value is recorded as −0.02 ± 0.12 log10. Besides, the “Corrected HCV RNA log10 reduction at 10 μM” value in the data set on HCV replicon (10 μM, corrected for rRNA) is 0.12 ± 0.10 log10. The “log10 RNA reduction at 100 μM, HCV” value in the data set on HCV replicon (setting [1]) stood at 0.16 ± 0.04 log10. Moreover, the “Corrected HCV RNA log10 reduction at 100 μM” value with HCV replicon (100 μM, corrected for rRNA) is 0.19 ± 0.09 log10. Further, the EC90 with HCV replicon (96 h incubation) is more than 100 µM.
Regarding `O=c1[nH]c(=O)n([C@H]2C[C@H](O)[C@@H](CO)O2)cc1F` [2′-deoxy-5-fluorouridine], the “log10 RNA reduction at 100 μM, rRNA” value in the data set on Huh-7 cells is 0.73 ± 0.35 log10. Also, in the data set with HCV replicon (Hepatitis C virus, 96 h), the log reduction at 10 µM amounted to 0.23 ± 0.05. Moreover, the log reduction at 100 µM with HCV replicon (setting [2]) is 0.04 ± 0.25; in the data set on HCV replicon (setting [3]), 0.76 ± 0.06. Further, the EC90 with HCV replicon (setting [4]) was more than 100 µM.
As to `O=c1cnn([C@@H]2O[C@H](CO)[C@@H](O)[C@H]2O)c(=O)[nH]1` [6-azauridine], the “log10 RNA reduction at 100 μM, rRNA” value in the data set with Huh-7 cells was 0.61 ± 0.18 log10. Further, in the data set with HCV replicon (setting [5]), the log reduction at 10 µM came to 0.12 ± 0.05. In addition, the log reduction at 100 µM in the data set on HCV replicon (setting [3]) is 0.25 ± 0.09; with HCV replicon (setting [6]), -0.36 ± 0.16. Moreover, in the data set on HCV replicon (setting [4]), the EC90 was more than 100 µM.
As for `Cc1c(-c2ccc(-c3ccccc3F)cc2)nc2ccc(F)cc2c1C(=O)O` [Brequinar (NSC-368390), Brequinar], the “log10 RNA reduction at 100 μM, rRNA” value in the data set with Huh-7 cells is 0.29 ± 0.01 log10. The log reduction at 10 µM in the data set with HCV replicon (setting [5]) was -0.17 ± 0.09. Further, the results for the log reduction at 100 µM with HCV replicon (setting [3]) and with HCV replicon (setting [6]) were -0.05 ± 0.05 and -0.34 ± 0.04, respectively. Moreover, the EC90 in the data set with HCV replicon (setting [4]) is more than 100 µM.
`COc1c(C)c2c(c(O)c1CCOP(=O)(O)CP(=O)(O)OC[C@H]1O[C@@H](n3cnc4c(N)ncnc43)[C@H](O)[C@@H]1O)C(=O)OC2` [C2-MAD]: the “log10 RNA reduction at 100 μM, rRNA” value in the data set on Huh-7 cells stood at 1.00 ± 0.15 log10. Moreover, the “Corrected HCV RNA log10 reduction at 10 μM” value in the data set on HCV replicon (10 μM, corrected for rRNA) worked out at 0.36 ± 0.21 log10. In addition, the “log10 RNA reduction at 100 μM, HCV” value in the data set on HCV replicon (setting [1]) was 1.09 ± 0.21 log10. In the data set on HCV replicon (100 μM, corrected for rRNA), the “Corrected HCV RNA log10 reduction at 100 μM” value stood at 0.08 ± 0.24 log10. For the same compound, the EC90 in the data set with HCV replicon (96 h incubation) was more than 100 µM.
In the case of `Nc1ccn([C@@H]2C=C(CO)[C@@H](O)[C@H]2O)c(=O)n1` [CPE-C, cyclopentenylcytosine], the “log10 RNA reduction at 100 μM, rRNA” value with Huh-7 cells was 1.21 ± 0.16 log10. Also, the EC90 in the data set with HCV replicon (96 h incubation) is 2.5 µM. Further, the log reduction at 10 µM in the data set on HCV replicon (setting [5]) is 1.43 ± 0.01. Besides, the figures for the log reduction at 100 µM in the data set with HCV replicon (setting [3]) and in the data set on HCV replicon (setting [6]) were 2.47 ± 0.33 and 1.26 ± 0.51, respectively.
For the compound `CC(=O)N(O)CCCCCNC(=O)CCC(=O)N(O)CCCCCNC(=O)CCC(=O)N(O)CCCCCN` [Deferoxamine], the “log10 RNA reduction at 100 μM, rRNA” value with Huh-7 cells was 0.92 ± 0.08 log10. The “Corrected HCV RNA log10 reduction at 10 μM” value with HCV replicon (10 μM, corrected for rRNA) is on record as 0.17 ± 0.11 log10. Moreover, the log reduction at 100 µM in the data set with HCV replicon (setting [6]) is 0.08 ± 0.03. The EC90 in the data set on HCV replicon (setting [4]) was more than 100 µM.
For `O=C1C(O)=C(CC=C(Cl)Cl)C(=O)c2ccccc21` [Dichloroallyl lawsone (NSC-126771), Dichloroallyl lawsone], in the data set with Huh-7 cells, the “log10 RNA reduction at 100 μM, rRNA” value came out at 2.13 ± 0.15 log10. Besides, the “Corrected HCV RNA log10 reduction at 10 μM” value with HCV replicon (10 μM, corrected for rRNA) is −0.52 ± 0.01 log10. In the data set with HCV replicon (setting [1]), the “log10 RNA reduction at 100 μM, HCV” value is recorded as 1.27 ± 0.02 log10. The “Corrected HCV RNA log10 reduction at 100 μM” value with HCV replicon (100 μM, corrected for rRNA) is on record as −0.86 ± 0.17 log10. In addition, the EC90 in the data set with HCV replicon (96 h incubation) was more than 100 µM.
For the compound `Nc1n[nH]c(N)n1` [Guanazole], in the data set on Huh-7 cells, the “log10 RNA reduction at 100 μM, rRNA” value amounted to 0.07 ± 0.03 log10. Also, in the data set with HCV replicon (Hepatitis C virus, 96 h), the EC90 is more than 100 µM and the log reduction at 10 µM worked out at 0.05 ± 0.08. The log reduction at 100 µM with HCV replicon (setting [2]) turned out to be 0.32 ± 0.08. For the same compound, the log reduction at 100 µM with HCV replicon (Hepatitis C virus, Huh-7, 96 h, read-out: log10 RNA reduction at 100 μM, HCV) was determined as 0.25 ± 0.11.
Take `NC(=O)NO` [Hydroxyurea]: in the data set with Huh-7 cells, the “log10 RNA reduction at 100 μM, rRNA” value is recorded as 0.25 ± 0.20 log10. Also, the log reduction at 100 µM is -0.08 ± 0.16 with HCV replicon (setting [2]) and 0.17 ± 0.08 with HCV replicon (setting [3]). Besides, the log reduction at 10 µM with HCV replicon (setting [5]) came out at 0.06 ± 0.04. Besides, the 90% effect concentration (EC90) in the data set on HCV replicon (setting [4]) was more than 100 µM.
Consider `CN(Cc1cnc2nc(N)nc(N)c2n1)c1ccc(C(=O)N[C@@H](CCC(=O)O)C(=O)O)cc1` [Methotrexate], for which the “log10 RNA reduction at 100 μM, rRNA” value in the data set on Huh-7 cells was found to be 0.07 ± 0.10 log10. In addition, in the data set on HCV replicon (Hepatitis C virus, 96 h), the log reduction at 10 µM is 0.15 ± 0.01. In addition, the log reduction at 100 µM came out at 0.11 ± 0.09 with HCV replicon (setting [2]) and 0.18 ± 0.01 with HCV replicon (setting [3]). In the data set on HCV replicon (setting [4]), the EC90 is more than 100 µM.
